{"source": "patent US20240293447A1", "about": "“Materials and Methods for Prevention and Treatment of Diarrhea and Inflammation in the Gastrointestinal Tract” (University of Florida Research Foundation, Inc., priority 2012, published 2024)", "system": "colitis in mice", "assay": "Colitis in mice (dextran sulfate sodium (DSS)-induced colitis) after CaSR-activating nutrients", "type": "in vivo", "conditions": "three-to-six-week-old mice received CaSR-activating nutrients (calcium, spermine, tryptophan, cinacalcet); figure legends only", "method": "Briefly, three-to-six-week-old, pre-pubertal rats and mice (WT v. villin/cre-floxed CaSR) received antigens or CaSR-activating nutrients (calcium, spermine, tryptophan, and cinacalcet). After treatment, mice and rats were sacrificed, and epithelial barrier, cytokine expression, dendritic cell, T cell, and B cell activation, and response to inflammatory stress were determined (FIG. 2)."}
{"compound": "C[C@@H](NCCCc1cccc(C(F)(F)F)c1)c1cccc2ccccc12", "note": "[cinacalcet]", "values": [{"measurement": "effect on colitis", "value": "can be used to treat colitis"}]}
